Key:
Pyrenophora teres = Pyrenophora teres in vitro cell test; assay type: cell-based; details: 144 h, 20 ppm of active ingredient, 6 days incubation, liquid culture, spectrometric measurement of mycelium growth, read-out: efficacy (inhibition of fungal growth)
Procedure: • Solvent: DMSO • Culture medium: 14.6 g anhydrous D-glucose (VWR), 7.1 g Mycological Peptone (Oxoid), 1.4 g granulated Yeast Extract (Merck), QSP 1 liter • Inoculum: spore suspension Fungicides were solubilized in DMSO and the solution used to prepare the required range of concentrations. […] A spore suspension of P. teres was prepared and diluted to the desired spore density. Fungicides were evaluated for their ability to inhibit spore germination and mycelium growth in liquid culture assay. The compounds were added in the desired concentration to the culture medium with spores. After 6 days incubation, fungi-toxicity of compounds was determined by spectrometric measurement of mycelium growth. Inhibition of fungal growth was determined by comparing the absorbance values in wells containing the fungicides with the absorbance in control wells without fungicides.

Botrytis cinerea = assay: In vivo preventive test on Botrytis cinerea (grey mould); details: 500 ppm of active ingredient, preventive spray on young gherkin or cabbage plants, evaluated 4 to 5 days after inoculation, read-out: efficacy
Procedure: (§1) The active ingredients were made soluble and homogenized in a mixture of Dimethyl sulfoxide/Acetone//Tween®80 and then diluted in water to the desired concentration. The young plants of gherkin or cabbage were treated by spraying the active ingredient prepared as described above. Control plants were treated only with an aqueous solution of Acetone/Dimethyl sulfoxide/Tween® 80. After 24 hours, the plants were contaminated by spraying the leaves with an aqueous suspension of Botrytis cinerea spores.

Sphaerotheca fuliginea = assay: In vivo preventive test on Sphaerotheca fuliginea (powdery mildew on cucurbits); details: Podosphaera fuliginea, 192 h; 500 ppm of active ingredient; preventive spray on young gherkin plants; evaluated 8 days after inoculation; read-out: efficacy
Procedure: as §1, with “gherkin” for “gherkin or cabbage”, “Sphaerotheca fuliginea” for “Botrytis cinerea”

[1] = system: Colletotrichum lindemuthianum; assay: In vivo preventive test on Colletotrichum lindemuthianum (leaf spot on bean); details: 168 h, 500 ppm of active ingredient, preventive spray on young bean plants, evaluated 7 days after inoculation, read-out: efficacy
Procedure: as §1, with “bean” for “gherkin or cabbage”, “Colletotrichum lindemuthianum” for “Botrytis cinerea”

Row | Compound | inhibition at 20 ppm (Pyrenophora teres) | pest or weed control at 500 ppm (Botrytis cinerea) | pest or weed control at 500 ppm (Sphaerotheca fuliginea) | pest or weed control at 500 ppm [1]
1 | Cc1ncc(Oc2cccc(C(F)(F)F)c2)c(C2=NOC[C@@H](Cc3ccc(C(F)F)cc3Cl)N2)n1 (racemic) [Compound I-033] | 90 to 100% | 90 to 100% | 90 to 100% | 80 to 89%
2 | Cc1ccc(C[C@@H]2CON=C(c3nc(C)ncc3Oc3cccc(C4CC4)c3F)N2)c(Cl)c1 (racemic) [Compound I-008] | 90 to 100% | 90 to 100% | 90 to 100% | 90 to 100%
3 | C=Cc1cccc(Oc2cnc(C)nc2C2=NOC[C@@H](Cc3ccc(C)cc3C)N2)c1 (racemic) [Compound I-019] | 90 to 100% | 90 to 100% | 80 to 89% | 90 to 100%
4 | Cc1ccc(C[C@@H]2CON=C(c3nc(C)ncc3Oc3cccc(C4CC4)c3)N2)c(C)c1 (racemic) [Compound I-024] | 90 to 100% | 90 to 100% | 90 to 100% | 90 to 100%
5 | C=Cc1ccc(C[C@@H]2CON=C(c3nc(C)ncc3Oc3cccc(C(F)(F)F)c3)N2)c(C)c1 (racemic) [Compound I-006] | 90 to 100% | 80 to 89% | 90 to 100% | 90 to 100%
6 | C#Cc1ccc(CC2CON=C(c3nc(C)ncc3Oc3cccc(C(F)(F)F)c3)N2)c(C)c1 (racemic) [Compound I-026, (5RS)-5-[(4-ethynyl-2-methyl-phenyl)methyl]-3-[2-methyl-5-[3-(trifluoromethyl)phenoxy]pyrimidin-4-yl]-5,6-dihydro-4H-1,2,4-oxadiazine] | 90 to 100% | 90 to 100% | 90 to 100% | 90 to 100%
7 | Cc1ccc(CC2CON=C(c3nc(C4CC4)ncc3Oc3cccc(C(F)(F)F)c3)N2)c(C)c1 (racemic) [Compound I-001, (5RS)-3-{2-cyclopropyl-5-[3-(trifluoro-methyl)phenoxy]pyrimidin-4-yl}-5-(2,4-dimethylbenzyl)-5,6-dihydro-4H-1,2,4-oxadiazine] | 90 to 100% | 90 to 100% | 90 to 100% | 90 to 100%
8 | Cc1cccc(Oc2cnc(C)nc2C2=NOC[C@@H](Cc3ccc(C)cc3C)N2)c1 (racemic) [Compound I-004] | 90 to 100% | 90 to 100% | 90 to 100% | 90 to 100%
9 | Cc1ccc(C[C@@H]2CON=C(c3nc(C)ncc3Oc3cccc(Cl)c3)N2)c(C)c1 (racemic) [Compound I-023] | 90 to 100% | 90 to 100% | 90 to 100% | 90 to 100%
10 | C#Cc1cccc(Oc2cnc(C)nc2C2=NOC[C@@H](Cc3ccc(C)cc3C)N2)c1 (racemic) [Compound I-025] | 90 to 100% | 90 to 100% | 90 to 100% | 90 to 100%
11 | Cc1ncc(Oc2cccc(C(F)(F)F)c2)c(C2=NOCC(Cc3ccc(Br)cc3C)N2)n1 (racemic) [Compound I-021, (5RS)-5-[(4-bromo-2-methyl-phenyl)methyl]-3-[2-methyl-5-[3-(trifluoro-methyl)phenoxy]pyrimidin-4-yl]-5,6-dihydro-4H-1,2,4-oxadiazine] | 90 to 100% | 90 to 100% | 90 to 100% | 90 to 100%
12 | Cc1ccc(C[C@@H]2CON=C(c3nc(C)ncc3Oc3cccc(Br)c3)N2)c(C)c1 (racemic) [Compound I-009] | 90 to 100% | 90 to 100% | 90 to 100% | 90 to 100%
13 | CSc1ncc(Oc2cccc(C(F)(F)F)c2)c(C2=NOC[C@@H](Cc3ccc(C)cc3C)N2)n1 (racemic) [Compound I-017] | 90 to 100% | 90 to 100% | 90 to 100% | 80 to 89%
14 | Cc1ncc(Oc2cccc(C(F)(F)F)c2)c(C2=NOCC(Cc3ccc(C4CC4)cc3C)N2)n1 (racemic) [Compound I-029, (5RS)-5-[(4-cyclopropyl-2-methyl-phenyl)methyl]-3-[2-methyl-5-[3-(trifluoromethyl)phenoxy]pyrimidin-4-yl]-5,6-dihydro-4H-1,2,4-oxadiazine] | 90 to 100% | 90 to 100% | 90 to 100% | 90 to 100%
15 | Cc1ncc(Oc2cccc(C(F)(F)F)c2)c(C2=NOC[C@@H](Cc3ccc(SC(F)(F)F)cc3)N2)n1 (racemic) [Compound I-030] | 90 to 100% | 90 to 100% | 90 to 100% | 70 to 79%
16 | Cc1ccc(C[C@@H]2CON=C(c3nc(C)ncc3Oc3cccc(C4CC4)c3F)N2)c(C)c1 (racemic) [Compound I-016] | 90 to 100% | 90 to 100% | 90 to 100% | 90 to 100%
17 | COc1cccc(Oc2cnc(C)nc2C2=NOC[C@@H](Cc3ccc(C)cc3C)N2)c1 (racemic) [Compound I-032] | 90 to 100% | 90 to 100% | 90 to 100% | 90 to 100%
18 | Cc1ccc(C[C@@H]2CON=C(c3nc(C)ncc3Oc3cccc(Cl)c3)N2)c(Cl)c1 (racemic) [Compound I-018] | 90 to 100% | 90 to 100% | 90 to 100% | 90 to 100%
19 | Cc1ccc(C[C@@H]2CON=C(c3nc(C)ncc3Oc3cccc(Cl)c3F)N2)c(Cl)c1 (racemic) [Compound I-005] | 90 to 100% | 90 to 100% | 90 to 100% | 90 to 100%
20 | Cc1ccc(CC2CON=C(c3nc(C)ncc3Oc3cccc(C(F)(F)F)c3)N2)c(C)c1 (racemic) [Compound I-002, (5RS)-5-(2,4-dimethylbenzyl)-3-{2-methyl-5-[3-(trifluoro-methyl)phenoxy]pyrimidin-4-yl}-5,6-dihydro-4H-1,2,4-oxadiazine] | 90 to 100% | 90 to 100% | 90 to 100% | 90 to 100%
21 | Cc1ccc(C[C@@H]2CON=C(c3nc(C)ncc3Oc3cccc(C(F)(F)F)c3)N2)c(Cl)c1 (racemic) [Compound I-013] | 90 to 100% | 90 to 100% | 90 to 100% | 90 to 100%

— patent US12565489B2, “Heterocyclyl pyrimidines and triazines as novel fungicides” (Bayer Aktiengesellschaft, priority 2020, dated 2026)
